± gives the expanded uncertainty stated by the source.
Assays:
[1] = Crystal; DSC
[2] = Molar enthalpy of transition or fusion; conditions: Crystal; DSC

Cc1[nH]nc2cc([N+](=O)[O-])ccc12 [3-methyl-6-nitroindazole]
Triple point temperature [1]: 460.15 ± 1 K
Molar enthalpy of transition or fusion [2]: 2.55 ± 0.0908 kcal/mol
